Molecular target: T1, Cytochrome P450 1A2 (Homo sapiens, UniProt P05177)
T1 sequence (P05177 whole entry): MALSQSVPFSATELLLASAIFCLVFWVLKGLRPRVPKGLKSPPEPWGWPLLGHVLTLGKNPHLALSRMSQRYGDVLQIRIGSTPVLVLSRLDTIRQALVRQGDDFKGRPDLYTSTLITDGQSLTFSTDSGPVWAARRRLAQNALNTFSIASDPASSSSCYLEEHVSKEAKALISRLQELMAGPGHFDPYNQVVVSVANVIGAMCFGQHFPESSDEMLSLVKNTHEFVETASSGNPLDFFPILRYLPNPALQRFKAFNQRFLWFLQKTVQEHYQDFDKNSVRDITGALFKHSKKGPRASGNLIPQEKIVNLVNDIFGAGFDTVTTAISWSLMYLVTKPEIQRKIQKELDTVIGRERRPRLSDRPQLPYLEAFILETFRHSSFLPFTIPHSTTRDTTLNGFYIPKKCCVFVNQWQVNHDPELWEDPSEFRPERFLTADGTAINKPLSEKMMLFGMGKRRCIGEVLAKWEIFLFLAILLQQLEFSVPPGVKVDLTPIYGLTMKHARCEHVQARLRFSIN
Assay: Inhibition of CYP1A2 in human liver microsomes by HPLC-MS/MS analysis
Format: ADME

IC50: > 100 µM
SMILES: O=c1[nH]c(CNC(CO)CO)c(I)c(=O)[nH]1
